Reference: patent US20260199359A1 (INCYTE CORPORATION, priority 2021, published 2026)
Several values for one entry are separate records, joined by “and”; a condition that tells them apart may be missing. Identical values can stand only once. Like-named read-outs stand apart in the source and are kept apart here.

Tests used:
[1] = Compatibility / immiscibility of bases and trolamine levels in solvent systems; assay type: physicochemical
[2] = Apparent pH of solvent systems before API addition and of saturated supernatant; assay type: physicochemical
[3] = SSCR01 with 3.50% w/w of the named base, before API addition
[4] = SSCR01 with 3.50% w/w of the named base, saturated with ruxolitinib phosphate
[5] = SSNA01 with 3.50% w/w of the named base, before API addition
[6] = SSNA01 with 3.50% w/w of the named base, saturated with ruxolitinib phosphate
[7] = SSAG01 with 3.50% w/w of the named base, before API addition
[8] = SSAG01 with 3.50% w/w of the named base, saturated with ruxolitinib phosphate

Compound	Compatibility of base with solvent system ([1]; SSAG01)	compatibility of the base with the solvent system ([1]; SSAG01)	Vehicle pH [2, 3]	Supernatant pH [2, 4]	Vehicle pH [2, 5]	Supernatant pH [2, 6]	also measured
CCC(N)(CO)CO [2-Amino-2-ethyl-1,3-propanediol]	Incompatible	incompatible	10.38	3.29	10.27	4.99	–
CC(C)(N)CO [2-Amino-2-methyl-1-propanol]	–	–	11.44	3.61	10.45	4.98	Vehicle pH [2, 7]: 12.17; Supernatant pH [2, 8]: 4.34
OCCNCCO [Diethanolamine]	Incompatible	incompatible	10.88	–	10.30	–	–
CC(O)CNCC(C)O (centres unmarked) [Diisopropanolamine]	–	–	10.63	3.49	9.89	6.51	apparent pH of SSAG01 following API addition with the named base ([2]; SSAG01, after ruxolitinib phosphate addition): 4.29; Vehicle pH [2, 7]: 11.31; Supernatant pH [2, 8]: 4.29
CC(C)NC(C)C [Diisopropylamine]	–	–	–	–	–	–	Compatibility of base with solvent system ([1]; SSCR01): Incompatible; compatibility of the base with the solvent system ([1]; SSCR01): incompatible; Supernatant pH [2]: 4.80 and 4.53; Vehicle pH [2]: 10.62 and 12.57
N#CC[C@H](C1CCCC1)n1cc(-c2ncnc3[nH]ccc23)cn1 [Ruxolitinib phosphate, ruxolitinib phosphate]	–	–	–	–	–	–	solubility at 24 h (physchem): 11.3 mg/mL
NC(CO)(CO)CO [Tris]	Incompatible	not compatible	10.08	3.45	–	–	Compatibility of base with solvent system ([1]; SSNA01): Incompatible; compatibility of the base with the solvent system ([1]; SSNA01): incompatible
Ethanolamine	–	–	–	–	–	–	Supernatant pH [2]: 6.65 and 6.55 and 5.33; Vehicle pH [2]: 10.27 and 12.25 and 11.52; apparent pH of SSCR01 following API addition with the named base [2]: 5.33; apparent pH of SSNA01 following API addition with the named base [2]: ca. 6.6
